Measurements taken from patent US20110129868A1, “CELL CAPABLE OF REPLICATING NOVEL HCV REPLICON, CELL CAPABLE OF REPLICATING FULL-LENGTH HCV RNA, AND USE OF THOSE CELLS” (priority 2008, published 2011).

Legend:
ORL8 cells = assay: cell count by trypan blue staining, ORL8 cells; assay type: cell-based, human; settings: drug at the concentration corresponding to the EC50 value
[1] = tested on: HCV replicon RNA replication in sORL11 (pool) cells; assay: luciferase reporter assay using sORL11 (pool) cells; assay type: cell-based, HCV-O strain (genotype 1b); settings: luciferase activity after 72 hours
From the text: (§1) Renilla luciferase was quantified by collecting cells using a Renilla Luciferase Assay System (Promega) according to the manufacturer's experiment protocol.
(§2) In the ORN/3-5B/QR, KE, SR (replicon RNA)-introduced OL8c and OL11c cells, G418-resistant cells filled the dish in 2 weeks (FIG. 9). Because the whole cells were estimated to be several tens of thousands of colonies, the G418-resistant cells were mixed without cloning, and used as reporter gene-carrying replicon-replicating cells (sORL8 (pool) cells and sORL11 (pool) cells). These cells had luciferase activities measuring 8×10^5 and 15×10^5, respectively, in terms of actual measurement values per 2×10^5 cells (Promega assay kit). […] Note that the doubling time of the cells using a common subculture medium (in the presence of G418) was calculated as 53 hours and 40 hours. It was also confirmed that the replicon RNA in these cells were not incorporated into the host DNA (the results are not presented).
(§3) The same experiments were conducted using sORL8 (pool) cells and sORL11 (pool) cells.

[2] = tested on: HCV replicon RNA replication in sORL8 (pool) cells; assay: luciferase reporter assay using sORL8 (pool) cells; assay type: cell-based, HCV-O strain (genotype 1b); settings: luciferase activity after 72 hours
From the text: as §1, §2, §3

[3] = tested on: full-length HCV RNA replication in OR6 cells; assay: microbe, parasite or virus in culture; assay type: cell-based, HCV-O strain (genotype 1b); settings: OR6 cells
From the text: as §1
An OR6-cell assay system was used as a control.

[4] = tested on: full-length HCV RNA replication in ORL11 cells; assay: microbe, parasite or virus in culture; assay type: cell-based, HCV-O strain (genotype 1b); settings: for measured luciferase activity value: 24 hours after the addition, 750,000 without IFN-α
Experimental: as §1
(§4) Luciferase activity of each cell line was then measured at hour 24, 48, and 72. […] SD values were calculated based on the results from three samples at each point. […]

[5] = tested on: full-length HCV RNA replication in ORL8 cells; assay: microbe, parasite or virus in culture; assay type: cell-based, HCV-O strain (genotype 1b); settings: ORL8 cells; for measured luciferase activity value: 24 hours after the addition, 380,000 without IFN-α
Experimental: as §1, §4

ORL11 cells = assay: cell count by trypan blue staining, ORL11 cells; assay type: cell-based, human
[6] = tested on: full-length HCV RNA replication in 1B-4RL8 cells; assay: luciferase activity and HCV RNA level in 1B-4RL8 cells; assay type: cell-based, HCV strain 1B-4 (genotype 1b); settings: 24 hours after the addition of IFN-α (1, 10, 100 IU/ml)
Experimental: (§5) Total RNA was extracted from the HCV RNA replicating cells using an RNeasy Mini Kit (Qiagen) according to the manufacturer's experiment protocol. First, using 2 μg of RNA as a template, reverse transcription (RT) reaction was performed with SuperScript™ II reverse transcriptase (Invitrogen) and the primer 319R below according to the manufacturer's experiment protocol. HCV RNA was quantified by real-time LightCycler PCR, using the resulting cDNA as a template. Real-Time LightCycler PCR was performed based on the method previously reported by the present inventors (reference: Acta Med. Okayama 56, 107-110, 2002), using the primers 104 and 197R below.
as §1
(§6) The 1B-4RL8 and KAH5RL8 cells were examined with regard to a possible correlation between luciferase activity and HCV RNA level (FIG. 49). The graphs on the left represent the measured luciferase activities 24 hours after the addition of IFN-α (0, 1, 10, 100 IU/ml) to the 1B-4RL8 and KAH5RL8 cells (each cultured for 2 days after inoculating 2×10^4 cells in a 24-well plate). Measurements were made in at least 3 wells at each point. A one hundred percent measurement value of 300,000 was obtained for the 1B-4RL8 and KAH5RL8 cells. […]

[7] = tested on: full-length HCV RNA replication in KAH5RL8 cells; assay: luciferase activity and HCV RNA level in KAH5RL8 cells; assay type: cell-based, HCV strain KAH5 (genotype 1b); settings: 24 hours after the addition of IFN-α (1, 10, 100 IU/ml)
Experimental: as §5, §1, §6

[8] = tested on: full-length HCV RNA replication in OL8, OL11, and OL14 cells; settings: IFN-α 50, 100, or 200 IU/ml every 4 days; 25 days; as in O cells
From the text: The colonies that appeared as G418 resistant cells were stained with CBB solution (FIG. 7). […] No G418-resistant cell colonies were obtained in OL14 cells.

OR6 cells = assay: cell count by trypan blue staining, OR6 cells; assay type: cell-based, human; settings: drug at the concentration corresponding to the EC50 value
[9] = drug concentrations based on the EC50 values
[10] = 24 hours after the addition of IFN-α (1, 10, 100 IU/ml)

IFN-α
cell count over the control cells (ORL8 cells): ≥ 95%
EC50 [1]: 0.25 IU/ml
EC50 [2]: 0.14 IU/ml
luciferase activity after treatment (single agent or combined use) ([3]; IFN-α at 0.25 IU/ml, ribavirin): 75%
luciferase activity after treatment (single agent or combined use) [3, 9]: 67%
EC50 ([3]; luciferase activity after 72 hours): 0.40 IU/ml
measured luciferase activity value ([4]; 1 IU/ml IFN-α): 300,000
measured luciferase activity value ([4]; 10 IU/ml IFN-α): 76,000
measured luciferase activity value ([4]; 100 IU/ml IFN-α): 27,000
luciferase activity and HCV RNA level [4, 10]: decreased in a manner that depended on IFN-α concentration
luciferase activity after treatment (single agent or combined use) ([4]; IFN-α at 0.25 IU/ml, ribavirin at 12.5 W): 48%
luciferase activity after treatment (single agent or combined use) [4, 9]: 41%
luciferase activity and HCV RNA level [5, 10]: decreased in a manner that depended on IFN-α concentration
luciferase activity after treatment (single agent or combined use) ([5]; IFN-α at 0.25 IU/ml, ribavirin): 26%
measured luciferase activity value ([5]; addition of 1 IU/ml IFN-α): 113,000
measured luciferase activity value ([5]; addition of 10 IU/ml IFN-α): 36,000
measured luciferase activity value ([5]; addition of 100 IU/ml IFN-α): 19,000
luciferase activity after treatment (single agent or combined use) [5, 9]: 50%
cell count over the control cells (ORL11 cells): ≥ 95%
luciferase activity and HCV RNA level [6]: decreased in a manner that depended on IFN-α concentration
luciferase activity and HCV RNA level [7]: decreased in a manner that depended on IFN-α concentration
sensitivity of full-length HCV RNA replication (G418-resistant colonies) [8]: highly sensitive
cell count over the control cells (OR6 cells): ≥ 95%
